Read-outs that look alike come from different tables or passages of the source.
What was measured:
1-day old PAO1 biofilm = experiment: Crystal violet assay for dispersion of 1-day old biofilm, DSHs (Examples 2 and 4); type: cell-based, Pseudomonas aeruginosa
Description: The effect that DSHs have on the adhesion of PAO1-EGFP on polystyrene surface (microtiter plate) was also examined. PAO1-EGFP is a P. aeruginosa strain that constitutively expresses green fluorescent protein. In the adhesion assays, PAO1-EGFP was grown in microtiter plate for 24-hours in LB-media with (160 μM) or without DSHs. After 24-hours, the fluorescent signal obtained from surface adhered PAO1-EGFP was measured. Percent reduction in fluorescence was calculated by comparing fluorescent signal from PAO1-EGFP grown in LB-media with the signal from wells that had DSHs (FIG. 29A). To study the effect of DSHs on biofilm formation, Pseudomonas aeruginosa (PAO1) was grown in LB-media with (160 μM) or without DSHs at 37° C. under static conditions within wells of microtiter plates. After 24 hours, the surface attached biofilms adhering to the bottom of the wells were stained with crystal-violet dye and the biofilm was quantified by measuring absorbance at 600 nm (OD600). The percent inhibition was calculated by comparing biofilm content of wells with no added agents (control) with the biofilm content from wells that had 160 μM of DSHs (FIG. 29A). Similar to inhibition, the surface attached biofilm after dispersion with DSHs was quantified with crystal-violet staining and absorbance measurement at 600 nm, except that for dispersion, biofilm was first grown for 1 day in just LB-media without any DSHs after which DSHs were added and plates were incubated for additional 24 hours followed by quantification (FIG. 29B).
Crystal violet based assay for quantifying dispersion of 1-day old PAO1 biofilms were Plate for set up similar to inhibition assay with a slight modification. Wells of the micro-titer plate was inoculated with (200 μL) bacterial subculture (PAO1 subculture OD600 ˜0.1). The plates were incubated at 37° C. for 24 hours to allow biofilm formation. After 24 hours, bacterial culture was gently pipetted out and appropriate volume of DSH were added followed by addition of fresh LB medium (200 μL). The microtiter plate was incubated for an additional 24 hours at 37° C., following which, similar to work up of inhibition assay, culture was removed, wells were washed and CV-dye was introduced, followed by washing and destaining with 30% AcOH solution in water and quantification at 600 nm. Here again, only the surface attached biofilm dispersed was reported by comparing wells with DSHs with wells with no agent.
Dose dependence assays for biofilm inhibition and dispersion. […] Both for biofilm inhibition and dispersion, predetermined volumes of DSH stocks were added to the assigned wells to span a concentration range between 0.5 μM-170 μM. Percent biofilm inhibition of dispersion was calculated by comparing to wells with no agent. The percent biofilm inhibition or dispersion was plotted versus concentration of DSHs. The linear values were logarithmically curve fitted using equation […]. The half maximal inhibitory concentration for both biofilm inhibition and dispersion (IC50 and DC50) were thus obtained.

PAO1-EGFP biofilm = experiment: Biofilm on steel coupons, fluorescence / CLSM; type: cell-based, Pseudomonas aeruginosa; details: 160 μM, 24 h, LB media
Description: A crystal violet (CV) assay was used to measure the amount of PAO1 biofilm formed after 24 h of bacterial inoculation. The fluorescence of green fluorescent proteins (GFP) expressed by PAO1-GFP was measured to directly quantify bacterial adhesion on polystyrene black 96 well plates with and without maltose derivatives after 2 h of bacterial inoculation. To evaluate the potential of maltose derivatives as both anti-biofilm and anti-adhesion agents, they were compared to a brominated furanone (BF8) known to inhibit biofilm formation, and two generic surfactants, sodium dodecyl sulfate (SDS) and tetra (ethylene glycol) monododecyl ether (C12EG4OH). […] P. aeruginosa strain PAO1-EGFP that constitutively producing green fluorescent protein was allowed to form biofilm on sterile steel coupons.
Confocal laser scanning microscopy (CLSM) based biofilm inhibition assay. Steel coupons (˜1×1 cm) were washed with EtOH, dried under a stream of nitrogen and then sterilized in an autoclave. Overnight culture of PAO1/EGFP (OD600 ˜1.0) grown in LB media (supplemented with 300 μg/mL of carbenicillin), was sub-cultured to OD600˜0.01 and then the OD600 was allowed to reach ˜0.1. Aliquot (600 μL) of PAO1/EGFP subculture OD600˜0.1 was then added into the wells of a 24-well micro titer plate. DSHs were then introduced into the assigned wells to reach a resultant concentration of 160 μM. Bacterial sub-culture with no agent served as positive control. Sterile steel coupons were then placed into the wells and the plates were wrapped with saran wrap and incubated for 24 h at 37° C. under static conditions. After 24 hours, the steel coupons were removed and washed by dipping in PBS buffer (2 washes) and the dried by holding with a forcep and gently dabbing the edge on a bleached paper (KIM wipes). The dried steel coupons were viewed under confocal laser scanning microscope (CLSM). Images were taken at 4 random locations on each steel coupons. Z-stacked images were also taken to determine the relative thickness of the biofilm.

[1] = Example 2, FIG. 20, read-out: Biofilm dispersion DC50
[2] = Example 4, FIG. 31, read-out: Half-maximal dispersion concentration (DC50)

SMILES | DC50 (1-day old PAO1 biofilm; [1]) | DC50 (1-day old PAO1 biofilm; [2]) | PAO1-EGFP biofilm on stainless steel coupons (CLSM) (PAO1-EGFP biofilm)
CC(C)CCCC(C)CCCC(C)CCO[C@H]1O[C@H](CO)[C@@H](O[C@@H]2O[C@H](CO)[C@@H](O)[C@H](O)[C@H]2O)[C@H](O)[C@H]1O (stereo partly drawn) [SFαC (13), saturated farnesyl-α-cellobioside] | ~78.4 µM | ~89 µM | decreased the fluorescence signal significantly
CC(C)CCCC(C)CCCC(C)CCO[C@@H]1O[C@H](CO)[C@@H](O[C@@H]2O[C@H](CO)[C@@H](O)[C@H](O)[C@H]2O)[C@H](O)[C@H]1O (stereo partly drawn) [SFβC (12), saturated famesyl-β-cellobioside] | ~36.4 µM | ~44 µM | decreased the fluorescence signal significantly
CC(C)CCCC(C)CCCC(C)CCO[C@@H]1O[C@H](CO)[C@@H](O[C@H]2O[C@H](CO)[C@@H](O)[C@H](O)[C@H]2O)[C@H](O)[C@H]1O (stereo partly drawn) [SFβM (14), saturated farnesyl-β-maltoside] | – | ~126 µM | –
